# Assay results reported in ChEMBL document CHEMBL5241071, “Covalent Small Molecule Immunomodulators Targeting the Protease Active Site” (J Med Chem, 2021).
# pIC50: −log10 of the molar value.
# How the values were obtained:
# Neutrophil elastase = target: T1, Neutrophil elastase (Homo sapiens, UniProt P08246); assay: Inhibition of human NE
# T1 sequence (P08246 whole entry): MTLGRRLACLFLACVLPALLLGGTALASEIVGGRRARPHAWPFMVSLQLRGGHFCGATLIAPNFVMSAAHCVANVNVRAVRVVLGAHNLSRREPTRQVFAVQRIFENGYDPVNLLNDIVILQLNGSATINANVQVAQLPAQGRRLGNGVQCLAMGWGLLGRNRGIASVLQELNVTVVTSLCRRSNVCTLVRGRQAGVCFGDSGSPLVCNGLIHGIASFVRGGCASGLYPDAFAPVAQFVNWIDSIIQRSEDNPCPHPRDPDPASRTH
# [1] = target: T2, Granzyme A (Homo sapiens) (UniProt P12544); assay: Inhibition of human recombinant GzmA assessed as Kobs/[I]
# T2 sequence (whole entry): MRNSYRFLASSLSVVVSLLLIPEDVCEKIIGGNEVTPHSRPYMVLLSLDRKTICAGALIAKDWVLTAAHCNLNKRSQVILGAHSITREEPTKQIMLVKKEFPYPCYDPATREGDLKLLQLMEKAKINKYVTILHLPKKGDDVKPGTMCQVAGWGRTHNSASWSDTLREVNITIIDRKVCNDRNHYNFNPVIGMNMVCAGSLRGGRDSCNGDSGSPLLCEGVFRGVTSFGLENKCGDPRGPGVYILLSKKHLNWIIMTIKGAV
Compound,pIC50 (Neutrophil elastase),kobs/[I] [1] [M⁻¹ s⁻¹]
O=S(=O)(F)Oc1ccccc1S(=O)(=O)F,6.62,
N=C(N)SCCOc1oc(=O)c2cc(NC(=O)Nc3ccccc3)ccc2c1Cl,,94000
